{
  "source": "patent US6723702B2",
  "about": "“Use of relaxin treat diseases related to vasoconstriction” (RAS Medical, Inc., priority 2000, dated 2004)",
  "key": {"conscious rats": {"test_system": "conscious rats", "test": "Acute infusion of ANG II during chronic infusion of purified porcine RLX", "format": "in vivo, rat", "conditions": "for ERPF / ERVR / GFR / MAP: RLX 4 μg/h s.c. day 5", "method": "At least 7 days after the implantation of vascular and bladder catheters, osmotic minipumps containing either porcine RLX (4 μg/hour) or vehicle (Ringer's solution) were implanted in intact, female rats (n=7 and 6 rats, respectively). Renal function and MAP were measured on day 5 of relaxin infusion (three 30-minute urine and midpoint blood collections). Next, an infusion of L-NAME (2 μg/minute, a substrate competitive inhibitor of NO synthase) was administered intravenously (i.v.) by infusion pump (Model 200, KD Scientific, Boston, Mass.). Four 1-hour urine collections with midpoint blood samples were collected for the assessment of GFR, ERPF, and ERVR during the L-NAME administration. Identical procedures were performed on additional animals chronically administered porcine RLX (n=5) or vehicle (n=5), except that ANG II (3 ng/minute) was infused rather than L-NAME. Finally, another four, age-matched control rats were administered Ringer's solution instead of either L-NAME or ANG II on day 5 of porcine RLX infusion.\nTo minimize the possibility that the convergence of renal function in the relaxin and vehicle infused rats elicited by L-NAME was merely a consequence of nonspecific renal vasoconstriction, the experimental paradigm was repeated using another vasoconstrictor, ANG II. Values are provided as mean±SEM. Relaxin, RLX; Angiotensin II, ANG II. ANG II was infused at 3 ng/min i.v., and RLX at 4 μg/h by osmotic minipump s.c. There were five rats each in the RLX and vehicle groups. *p<0.05 vs baseline, Hp<0.05 RLX vs vehicle."}, "[1]": {"test_system": "rat VEGF164, VEGF120 and bFGF mRNA in peri-infarct area of rat hearts", "test": "Rat myocardial infarct (LCAL) model: quantitative RT-PCR of VEGF and bFGF", "format": "in vivo", "method": "Female Sprague Dawley rats, approximately 12-weeks of age were used. Rats were anesthetized by intraperitoneal (i.p.) injection of up to 1 ml/kg ketamine/medetomidine (6:4). Following exteriorization of the heart, the left coronary artery was ligated near its origin with a silk suture. In sham surgery control animals, the suture was placed superficially into the muscle adjacent to the coronary artery. Post-closure EKG's were monitored for S-T segment elevation in LCAL animals to confirm the outcome of ligation. Immediately following cardiac surgery, a primed mini-osmotic pump containing relaxin or vehicle (20 mM acetate, pH 5.0) was aseptically implanted into a subcutaneous (s.c.) pocket on the dorsal interscapular region. Vehicle or relaxin (0.1 mg/kg/day) was delivered as a continuous s.c. infusion for 7 or 21 days to either sham or LCAL animals. Animals were terminated on day 7 or 21, and the peri-infarct regions anterior to the scar in the left ventricle, or equivalent sites on sham surgery animals were harvested.\nThe left coronary artery ligation (LCAL) model of myocardial ischemia in the rat (Selye et al. (1960) Angiology 11:398-407) caused profound, acute damage, involving up to 50% of the left ventricular free wall. Following systemic relaxin treatment, using rhRLX, tissue RNA was examined at 7 and 21 days post-infarction for persistent changes in VEGF and bFGF. Cells in the immediate margins surrounding the infarct were sampled to assess angiogenic cytokine expression, using quantitative RT-PCR analysis. Oligonucleotide primers and TaqMan probes, shown in Table 8, were purchased from BioSource International Inc.(Camarillo, Calif.), or PE Applied Biosystems for use with the ABI Prism^7 7700 Sequence Detection System (quantitative PCR) (PE Applied Biosystems).\nOligonucleotides were designed to rat or human bFGF, human VEGF165 amino acid or 121 amino acid isoforms, and their respective rat homologues (VEGF164 and VEGF120), and human HGF (for use with the PE Applied Biosystems “GeneAmp PCR System 9600”). Rat and human GAPDH primers and probes were purchased from BioSource International Inc. and PE Applied Biosystems, respectively. Tissue samples and monolayer cells were suspended in RNA STAT-60 (Tel-Test, Inc., Friendswood, Tex.) and processed following vendor instructions. Reverse transcription-polymerase chain reaction (RT-PCR) was performed using either rat or human total RNA as template. 150 ng of total RNA was used for the analysis of VEGF, bFGF and HGF mRNA expression; 10 ng of total RNA was used for GAPDH mRNA expression. Reverse transcription-polymerase chain reaction (RT-PCR) reagents were purchased from PE Biosystems (Foster City, Calif.).\nRNA was extracted from peri-infarct regions of rat hearts following LCAL or an analogous area of sham hearts. […]"}},
  "data": [
    {"substance": "Porcine RLX: lyophilized, purified porcine relaxin (Sherwood and O'Byrne 1974), dissolved in Ringer's solution", "values": [
      {"measurement": "ERPF", "setting": "conscious rats; ANG II 3 ng/min i.v., 60 min", "result": 8926},
      {"measurement": "ERVR", "setting": "conscious rats; ANG II 3 ng/min i.v., 60 min", "result": 8.88},
      {"measurement": "GFR", "setting": "conscious rats; ANG II 3 ng/min i.v., 60 min", "result": 2980},
      {"measurement": "MAP", "setting": "conscious rats; ANG II 3 ng/min i.v., 60 min", "result": 130},
      {"measurement": "ERPF", "setting": "conscious rats; ANG II 3 ng/min i.v., 120 min", "result": 9646},
      {"measurement": "ERVR", "setting": "conscious rats; ANG II 3 ng/min i.v., 120 min", "result": 9.24},
      {"measurement": "GFR", "setting": "conscious rats; ANG II 3 ng/min i.v., 120 min", "result": 2653},
      {"measurement": "MAP", "setting": "conscious rats; ANG II 3 ng/min i.v., 120 min", "result": 142},
      {"measurement": "ERPF", "setting": "conscious rats; ANG II 3 ng/min i.v., 180 min", "result": 7738},
      {"measurement": "ERVR", "setting": "conscious rats; ANG II 3 ng/min i.v., 180 min", "result": 11.52},
      {"measurement": "GFR", "setting": "conscious rats; ANG II 3 ng/min i.v., 180 min", "result": 2578},
      {"measurement": "MAP", "setting": "conscious rats; ANG II 3 ng/min i.v., 180 min", "result": 143},
      {"measurement": "ERPF", "setting": "conscious rats; ANG II 3 ng/min i.v., 240 min", "result": 7698},
      {"measurement": "ERVR", "setting": "conscious rats; ANG II 3 ng/min i.v., 240 min", "result": 11.84},
      {"measurement": "GFR", "setting": "conscious rats; ANG II 3 ng/min i.v., 240 min", "result": 2763},
      {"measurement": "MAP", "setting": "conscious rats; ANG II 3 ng/min i.v., 240 min", "result": 146},
      {"measurement": "ERPF", "setting": "conscious rats; Baseline before ANG II", "result": 10364},
      {"measurement": "ERVR", "setting": "conscious rats; Baseline before ANG II", "result": 6.23},
      {"measurement": "GFR", "setting": "conscious rats; Baseline before ANG II", "result": 2929},
      {"measurement": "MAP", "setting": "conscious rats; Baseline before ANG II", "result": 111},
      {"measurement": "percent increase in MAP and reduction in GFR elicited by ANG II", "setting": "conscious rats; RLX treated vs vehicle infused rats", "result": "comparable"},
      {"measurement": "percent increase in ERVR and reduction in ERPF elicited by ANG II", "setting": "conscious rats; chronic relaxin vs vehicle", "result": "markedly attenuated"}
    ]},
    {"substance": "rhRLX: recombinant human relaxin, identical in amino acid sequence to the product of the human H2 gene; A chain of 24, B chain of 29 amino acids", "values": [
      {"measurement": "increase in peri-infarct bFGF expression (mRNA)", "setting": "[1]; 0.1 mg/kg/day s.c., both 7 and 21 days, vs vehicle-treated infarcted hearts", "result": 2, "unit": "fold"},
      {"measurement": "relative expression of either VEGF isoform, peri-infarct regions", "setting": "[1]; 0.1 mg/kg/day, day 7", "result": "no changes"},
      {"measurement": "relative levels of VEGF164 and VEGF120 transcripts", "setting": "[1]; 0.1 mg/kg/day, day 21", "result": "trend towards an increase"},
      {"measurement": "VEGF or bFGF mRNA expression", "setting": "[1]; sham surgery animals", "result": "no effect"}
    ]}
  ]
}
